Assay results from ChEMBL document CHEMBL1201862, “PubChem BioAssay data set” (2004).
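Cells were grown in 96-well plates and exposed to each compound for 48 hours at five concentrations; endpoints were interpolated linearly between bracketing concentrations, or set to the highest concentration if not reached. The concentration for 50% growth inhibition is given as GI50.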 The source made the active and inactive calls. Cut-off read from the data, not from the text of the source: active = GI50 up to about 1.1 µM and inactive = higher.

Columns and labels:
Assay in all cases: NCI-60 cell line screen, 48 h
SF-268 = test system: SF-268
T47D = test system: T47D
UACC-257 = test system: UACC-257
SN12C = test system: SN12C
SNB-75 = test system: SNB-75
OVCAR-3 = test system: OVCAR-3
SK-MEL-2 = test system: SK-MEL-2
MOLT-4 = test system: MOLT-4
CCRF-CEM = test system: CCRF-CEM
MDA-N = test system: MDA-N
PC-3 = test system: PC-3
NCI-H226 = test system: NCI-H226
DU-145 = test system: DU-145
HCT-116 = test system: HCT-116
A498 = test system: A498
KM12 = test system: KM12
A549 = test system: A549
SK-OV-3 = test system: SK-OV-3
SR = test system: SR
786-0 = test system: 786-0

Compound	GI50 (SF-268)	GI50 (T47D)	GI50 (UACC-257)	GI50 (SN12C)	GI50 (SNB-75)	GI50 (OVCAR-3)	GI50 (SK-MEL-2)	GI50 (MOLT-4)	GI50 (CCRF-CEM)	GI50 (MDA-N)	GI50 (PC-3)	GI50 (NCI-H226)	GI50 (DU-145)	GI50 (HCT-116)	GI50 (A498)	GI50 (KM12)	GI50 (A549)	GI50 (SK-OV-3)	GI50 (SR)	GI50 (786-0)
Nn1c(Sc2nc3ccccc3c(=O)n2N)nc2ccccc2c1=O	8.49 µM (inactive)	5.09 µM (inactive)	16.5 µM (inactive)	5.75 µM (inactive)	11.6 µM (inactive)	11.1 µM (inactive)	3.24 µM (inactive)	1.63 µM (inactive)	0.94 µM (active)	4.04 µM (inactive)	11.7 µM (inactive)	1.71 µM (inactive)	20.2 µM (inactive)	2.99 µM (inactive)	16 µM (inactive)	11.7 µM (inactive)	14.2 µM (inactive)	20.4 µM (inactive)	2.02 µM (inactive)	4.72 µM (inactive)
CC(C)C[S+]1C2=C(CC(C)(C)CC2=O)[N-]c2ccccc21 (stereo not given)	> 100 µM (inactive)	> 100 µM (inactive)	> 100 µM (inactive)	> 100 µM (inactive)	> 100 µM (inactive)	> 100 µM (inactive)	> 100 µM (inactive)	67.8 µM (inactive)	> 100 µM (inactive)	> 100 µM (inactive)	> 100 µM (inactive)	> 100 µM (inactive)	> 100 µM (inactive)	> 100 µM (inactive)	> 100 µM (inactive)	> 100 µM (inactive)	> 100 µM (inactive)	> 100 µM (inactive)	11.3 µM (inactive)	> 100 µM (inactive)
Cc1ccc(/N=N/c2c(O)c(C(=O)O)cc3ccccc23)c(S(=O)(=O)O)c1	> 100 µM (inactive)	> 100 µM (inactive)	> 100 µM (inactive)	> 100 µM (inactive)	> 100 µM (inactive)	> 100 µM (inactive)	> 100 µM (inactive)	> 100 µM (inactive)	> 100 µM (inactive)	> 100 µM (inactive)	> 100 µM (inactive)	> 100 µM (inactive)	> 100 µM (inactive)	> 100 µM (inactive)	> 100 µM (inactive)	> 100 µM (inactive)	> 100 µM (inactive)	> 100 µM (inactive)	> 100 µM (inactive)	> 100 µM (inactive)
Cc1cc(S(=O)(=O)Nc2nnc3c(Cl)cc(C(F)(F)F)cn23)c(S)cc1Cl	> 79.3 µM (inactive)	37.2 µM (inactive)	> 100 µM (inactive)	> 96.6 µM (inactive)	4.88 µM (inactive)	49.9 µM (inactive)	48.4 µM (inactive)	75.9 µM (inactive)	> 84.7 µM (inactive)	99.8 µM (inactive)	69.3 µM (inactive)	23.3 µM (inactive)	> 91.8 µM (inactive)	34.8 µM (inactive)	> 100 µM (inactive)	39.3 µM (inactive)	51.6 µM (inactive)	44.9 µM (inactive)	66.8 µM (inactive)	57.1 µM (inactive)
Oc1cc(-c2cccc(Br)c2)nc2cc3c(cc12)OCO3	4.36 µM (inactive)	14.6 µM (inactive)	5.24 µM (inactive)	5.6 µM (inactive)	2.72 µM (inactive)	3.01 µM (inactive)	2.16 µM (inactive)	72.3 µM (inactive)	8.38 µM (inactive)	0.31 µM (active)	5.43 µM (inactive)	6.75 µM (inactive)	5.43 µM (inactive)	3.53 µM (inactive)	3.08 µM (inactive)	3 µM (inactive)	7.24 µM (inactive)	3.8 µM (inactive)	1.93 µM (inactive)	3.52 µM (inactive)
OC(c1cc(C(O)(C(F)(F)F)C(F)(F)F)ncn1)(C(F)(F)F)C(F)(F)F	> 10 µM (inactive)	> 10 µM (inactive)	> 10 µM (inactive)	> 10 µM (inactive)	> 10 µM (inactive)	> 10 µM (inactive)	> 10 µM (inactive)	> 10 µM (inactive)	> 10 µM (inactive)	> 10 µM (inactive)	> 10 µM (inactive)	> 10 µM (inactive)	> 10 µM (inactive)	> 10 µM (inactive)	> 10 µM (inactive)	> 10 µM (inactive)	> 10 µM (inactive)	> 10 µM (inactive)	> 10 µM (inactive)	> 10 µM (inactive)
c1ccc2c(c1)-c1ccccc1C2N1CC2CCC(CC2)C1	15.5 µM (inactive)	20.7 µM (inactive)	20.6 µM (inactive)	23.9 µM (inactive)	27 µM (inactive)	20.4 µM (inactive)	16 µM (inactive)	12.3 µM (inactive)	19.5 µM (inactive)	31.9 µM (inactive)	27.6 µM (inactive)	19.5 µM (inactive)	29.9 µM (inactive)	20.7 µM (inactive)	20.3 µM (inactive)	19 µM (inactive)	28.8 µM (inactive)	44.1 µM (inactive)	20.6 µM (inactive)	35.1 µM (inactive)
CCOP(=O)(OCC)/C(C#N)=C/c1cccn1C	> 100 µM (inactive)	> 100 µM (inactive)	> 100 µM (inactive)	> 100 µM (inactive)	> 100 µM (inactive)	> 100 µM (inactive)	> 100 µM (inactive)	> 100 µM (inactive)	25.9 µM (inactive)	> 100 µM (inactive)	> 100 µM (inactive)	> 100 µM (inactive)	> 100 µM (inactive)	> 100 µM (inactive)	> 100 µM (inactive)	> 100 µM (inactive)	> 100 µM (inactive)	> 100 µM (inactive)	> 100 µM (inactive)	> 100 µM (inactive)
CC[C@](C)(O)C(=O)O[C@H]1C(=O)O[C@@H]2C[C@H]3C(C)=CC(=O)[C@@H](O)[C@]3(C)[C@H]3[C@@]4(O)OC[C@]32[C@@H]1[C@@H](C)[C@H]4O [GLAUCARUBINONE]	0.0661 µM (active)	0.176 µM (active)	0.0675 µM (active)	0.158 µM (active)	0.0585 µM (active)	0.0982 µM (active)	0.0625 µM (active)	0.05 µM (active)	0.05 µM (active)	0.425 µM (active)	0.458 µM (active)	0.113 µM (active)	0.824 µM (active)	0.05 µM (active)	0.32 µM (active)	0.0604 µM (active)	1.21 µM (inactive)	1.02 µM (active)	0.0453 µM (active)	0.146 µM (active)
